Assay [1] has as its system Plasmodium falciparum. Briefly: Antimalarial activity against chloroquine-resistant Plasmodium falciparum W2 after 48 hrs by LDH reporter assay. Type of assay: functional, organism-based. Particulars: W2, 48 h.
Assay [2] concerns Plasmodium falciparum. Briefly: Antimalarial activity against chloroquine-sensitive Plasmodium falciparum D6 after 48 hrs by LDH reporter assay. The settings on record: D6, 48 h. Type of assay: functional, organism-based.

Take `O=C(NO)c1ccccc1O` [SALICYLHYDROXAMIC ACID]: the IC50 in assay [1] (read-out: IC50) is 51300 nM; in assay [1] (read-out: pIC50 (converted)), 51300 nM; in assay [2] (read-out: IC50), 35700 nM; in assay [2] (read-out: pIC50 (converted)) it was 35500 nM.

As to `CC(/C=C/C(=O)NO)=C\[C@@H](C)C(=O)c1ccc(N(C)C)cc1` [TRICHOSTATIN], the IC50 in assay [1] (read-out: IC50) was 10 nM; in assay [1] (read-out: pIC50 (converted)) it was 9.77 nM; in assay [2] (read-out: IC50) it was 15.6 nM; in assay [2] (read-out: pIC50 (converted)), 15.5 nM.

Regarding `O=C(CCCCCCCC(=O)NO)NO` [AZELAIC BIS HYDROXAMIC ACID], the IC50 in assay [1] (read-out: IC50) was 3900 nM; in assay [1] (read-out: pIC50 (converted)), 3890 nM; in assay [2] (read-out: IC50), 5500 nM; in assay [2] (read-out: pIC50 (converted)) it was 5500 nM.

Take `C[C@@H]1CC[C@H]2[C@@H](C)C(=O)O[C@@H]3O[C@@]4(C)CC[C@@H]1[C@]32OO4` [ARTEMISININ]: the IC50 in assay [1] (read-out: IC50) came out at 1 nM; in assay [2] (read-out: IC50), 9 nM.

In the case of `O=C(CCCCCCC(=O)NO)NO` [SUBEROHYDROXAMIC ACID], the IC50 is 1530 nM in assay [1] (read-out: IC50), 1510 nM in assay [1] (read-out: pIC50 (converted)), 2230 nM in assay [2] (read-out: IC50) and 2240 nM in assay [2] (read-out: pIC50 (converted)).

Source of the values: ChEMBL document CHEMBL1157182, “Structural insights into the Plasmodium falciparum histone deacetylase 1 (PfHDAC-1): A novel target for the development of antimalarial therapy” (Bioorg Med Chem, 2008).
